Data on four compounds can be found in patent US8557855B2, “Methods of using ryanodine antagonists in treating neural injury” (Allergan, Inc., priority 2002, dated 2013).

Structures are written as SMILES.

Data set [1] concerns retinal ganglion cells. Format: in vivo. The settings on record: rabbit, intravitreal injection, two weeks after injection, normalized to vehicle control. An excerpt: (§1) To evaluate in vivo neuroprotective effects of dantrolene (DTL) on NMDA-induced injury of RGCs an imaging method to count cell numbers at the RGC layer in the isolated retinas was developed. Briefly, two weeks following intravitreal injection of vehicle or various test agents, a rabbit was euthanized and the treated eye was enucleated. A piece of retina (8 mm in diameter) was cut immediately below the optic nerve head, flat-mounted in a plastic chamber filled with HEPES-buffered Ames medium, and imaged at 25 fields in a 5×5 array with a 40× water immersion objective using an Olympus microscope (BX50WI) equipped with an epi-fluorescence unit. The images were taken with a Hamamatsu C4742-95 digital camera and Image-Pro Plus software (V4.5). The total number of neurons at the ganglion cell layer in these 25 fields was counted. The same measurements were conducted in one control group (rabbits treated with vehicle) and 4 test groups treated with 1) NMDA, 2) dantrolene+NMDA, 3) veratridine (Verat) a neurotoxin that damages retinal ganglion cells with intracellular sodium overload, and 4) dantrolene+veratridine. The results from the 4 test groups are normalized with respect to that of control.

In data set [2] the test system is retinal ganglion cells. As to the kind of experiment: NMDA-induced injury of retinal ganglion cells in vivo in rabbits (cell count at RGC layer). The settings on record: rabbit.
Excerpt: as §1

Data set [3] has as its system retinal ganglion cells. The settings on record: cited from earlier work.

Turning to `O=C1CN(N=Cc2ccc(-c3ccc([N+](=O)[O-])cc3)o2)C(=O)N1` [dantrolene, 1-[[5-(p-Nitrophenyl)furfurylidene]amino]hydantoin], the “cell loss caused by veratridine with dantrolene” value in the data set on retinal ganglion cells [1] (veratridine alone 56%) turned out to be 50%. In addition, in the data set with retinal ganglion cells [2] (intravitreal injection of NMDA), the “neuroprotective effect on NMDA-induced damage to ganglion cells (FIG. 1)” value was “ameliorated NMDA-induced damage to ganglion cells”. The “NMDA-induced cell death at the RGC layer after pretreatment with dantrolene” value with retinal ganglion cells [2] (intravitreal injection, two weeks after injection, normalized to vehicle control, NMDA alone 53%) is recorded as 35%.

As to `CN[C@H](CC(=O)O)C(=O)O` [NMDA], the “loss of cells at the RGC layer caused by NMDA alone” value in the data set with retinal ganglion cells [2] (intravitreal injection, two weeks after injection, normalized to vehicle control) came out at 53%.

For the compound `CC12CC3CC(C)(C1)CC(N)(C3)C2` [memantine], the “effect on RGC loss in glaucomatous monkeys” value in the data set on retinal ganglion cells [3] is on record as “ameliorates RGC loss”.

For the compound `COc1ccc(C(=O)O[C@H]2CC[C@@]3(C)[C@@H]4CC[C@H]5[C@]6(O)C[C@H](O)[C@@]7(O)[C@@H](CN8C[C@@H](C)CC[C@H]8[C@@]7(C)O)[C@]6(O)C[C@@]53O[C@]24O)cc1OC` [veratridine], the “cell loss at the RGC layer caused by veratridine alone” value in the data set with retinal ganglion cells [1] turned out to be 56%.
